What was measured:
Assay type in all cases: physicochemical
[1] = Stability of fluorous alkoxysilyl ethers in CH2Cl2/trifluoroacetic acid (5%), remaining ether analysed by LC-MS; settings: aliquots quenched with MeOH/pyridine (20:1)
Protocol: Fluorous alkoxysilyl ethers (34a,b, 37a) were each dissolved in a mixture of CH2Cl2/trifluoroacetic acid (5%), and aliquots of these solutions were quenched with MeOH/pyridine (20:1). The quenched reaction mixtures were analyzed for remaining 34a,b and 37a by LC-MS (Liquid chromatography-mass spectrometry). Reactions and quenching were performed on a HP 7868 solution phase synthesizer. Analysis of quenched samples was done with a HP 1100 series LC/MS. Samples eluted were compared with unreacted control samples. (Rt [min]: 2.6 (34a), 2.9 (34b), 2.3 (37a); Novapak C18, 3.9×150 mm, 1.2 mL/min, MeOH as eluent).
(§1) The stability of these alkoxysilyl ethers appeared to be determined by the steric bulk around the silicon atom. While 34a was not very stable (t1/2˜6 min) under the acidic reaction conditions, 34b (t1/2˜4 h) was moderately stable, and the tert-butyl-phenyl-1H,1H,2H,2H-heptadecafluorodecyloxysilyl ether 37a (t1/2>>6 h) was very stable. […] As a result of the enhanced electrophilicity of the silicon atom in bis-alkoxysilyl ethers, the latter are generally more labile toward nucleophiles and bases than either the TBDPS or the tert-butyldimethylsilyl (TBDMS) groups. […] In contrast, the stability under protic acidic conditions in 5% p-TsOH/MeOH (t1/2˜40 min) is more limited.
Reactions and quenching were performed on a HP 7868 solution phase synthesizer. […]

[2] = Stability in THF-d8 / 0.25 M NaOD (3:1), determined by 1H NMR; settings: THF-d8 and 0.25 M NaOD (3:1)
Protocol: as §1

[3] = Stability under protic acidic conditions in 5% p-TsOH/MeOH
Protocol: as §1

With `CC(C)(C)[Si](OCCC(F)(F)C(F)(F)C(F)(F)C(F)(F)C(F)(F)C(F)(F)C(F)(F)C(F)(F)F)(OC1CCCCC1)c1ccccc1` (stereo not drawn) [37a, tert-butyl-phenyl-1H,1H,2H,2H-heptadecafluorodecyloxysilyl ether] the “t1/2 under the acidic reaction conditions” value [1] was over 6 h, the “t1/2 in mildly basic aqueous medium” value [2] was 48 h and the “t1/2 under protic acidic conditions” value [3] was about 0.667 h.

— patent publication US6803475B2, “Fluorous tagging compounds and methods of use thereof” (University of Pittsburgh, priority 2000, dated 2004)
